Here are results for two compounds from US7371396B2, “Dermatological and cosmetic compositions” (Relivia SRL, priority 2001, dated 2008).

Molecules are shown by their SMILES.

For data set [1] the following is noted: Nomeir et al., Drug Metab Dispos 20(2):198-204, 1992; cited from earlier work.
Data set [2] concerns patients suffering from severe disabling atopic dermatitis (AD). The experiment in a line: Test in vivo with atopic dermatitis subjects (SCORAD system). More on the design: species or system human. As to the method:
Experiments were carried out on patients (n=20) of both sexes, of age above 18 years, suffering from severe disabling atopic dermatitis (AD) unresponsive to the current topical treatments.
All patients were subjected to complete blood count and measurements of renal and hepatic functions prior to treatment. Patients who had been systemically treated two months previously with corticoids, antibiotics, psoralenes and other immunosuppressants or with UV were excluded. Patients were supposed not to use any corticoid topically.
Material—A commercially available formulation Triderm Lenil (ICIM International srl, Gallarate, Italy) was used as such (formulation I) or with the addition of 1×10^−2 mol (0.33 g) of Furfuryl palmitate (formulation II).
Triderm Lenil ingredients: aqua, petrolatum, paraffinnum liquidum, dimethicone, laureth-9, C12-C15 alkyl benzoate, soy sterol, phenyl trimethicone, cetearyl alcohol, ribes nigrum, bisabolol, tocopheryl acetate, dimethicone copolyol, capryloyl glycine, glycyrrhetinc acid, superoxide dismutase, phytosphingosine, polyquaternium-7, sodium carbomer, hydroxypropyl guar, disodium EDTA, farnesol, sodium chloride.
Treatment—Out of 20 patients, 10 were included in the furfuryl palmitate-treated group […] and 10 in the control group (formulation I). […] Patients were divided in two groups and treated twice a day for one months either with the Furfuryl palmitate-containing cream or with the placebo cream (control group). Evaluations—The progress of the disease was monitored with the SCORAD system (Dermatology 1993; 186: 23-31) drafted by European Task Force on Atopic Dermatitis (European Society of Pediatric Dermatology, Bordeaux, September 1990) with further modification by Hanifin and Rajka, thus by monitoring 3 criteria: • A) Lesione spread: analysis of surface involvement was performed during the clinical examination by drawing the involved areas on the evaluation sheet, then calculate the proportion of involved surface area segment by segment. For example, if ¾th of the right lower limb is interested by AD, the corresponding score is of about 7/9. • B) Grading of intensity: carried out in a chosen representative area in patients with localized lesions. In patients with areas varying in severity, a representative area of mean involvement is chosen. Dryness should be evaluated in a remote area of non-inflammatory skin. The elementary lesions were classified in the following manifestation: a) Erythema b) Edema/papulation c) Oozing/crusting d) Excoriation e) Lichenification, wherein each item is scored on a scale of 0 to 3, with the total for the intensity criteria is based on a maximum of 18 • C) Subjective signs: by looking at the two most representative items concerning the quality of life of patients during the 3 previous days, i.e. pruritus and insomnia. The patient and/or one of their relatives expresses the intensity of pruritus or insomnia using a visual analog scale graded between 0 and 10.
At the beginning of the treatment, the body area affected by eczema was 69% on the average in all patients. […] At the end of the treatment, the mean scores for itching decreased from 2.3 to 0.6 and for sleep disorders from 7.9 to 1.0. only in the furfuryl palmitate-treated patients.

Setting [3] is: at the end of the treatment, 10 patients in the treated group.

The melting point is the temperature, or range, at which the solid turns liquid.

For `O=Cc1ccco1` [furfural], the “toxicity compared with furfuryl alcohol” value in data set [1] was “at least twice as toxic as the furfuryl alcohol”.

`CCCCCCCCCCCCCCCC(=O)OCc1ccco1` [furfuryl palmitate, Furfuryl Palmitate] had a melting point of 31 to 33 °C. Moreover, in data set [2] (after the first two weeks of treatment, cream with furfuryl palmitate (formulation II) twice a day, decreased from 57.0 (SEM 1.6 n=10) at start), the “mean of the values concerning the different clinical symptoms (SCORAD)” value is listed as 21.5. Further, in data set [2] (at the end of the treatment (one month, twice a day), decreased from 2.3), the “mean score for itching” value worked out at 0.6. For the same compound, in data set [2] (at the end of the treatment (one month, twice a day), decreased from 7.9), the “mean score for sleep disorders” value was determined as 1.0. For the same compound, in data set [2] (setting [3]), the “number of treated patients with significant improvements of all the considered parameters” value is reported as 8 and the “treated patients with improvement limited to skin scaling” value is given as “two of them only showed improvements concerning skin scaling”. Further, in data set [2] (reached during treatment, twice a day for one month, 69% on the average in all patients at the beginning), the “body area affected by eczema” value was found to be 27%.
